Results from patent US20230310388A1, “Methods and Compositions for Treating Fungal Infections” (Neoculi Pty Ltd, priority 2020, published 2023).
≈ marks a conversion by molar mass, not a printed value. Where “and” joins values, the source holds several entries; their conditions need not be identical. Equal values may be shown once.

Experiments:
Candida parapsilosis = experiment: CLSI broth microdilution MIC (Example 3); type: cell-based; details: Candida parapsilosis ATCC 22019
Description: (§1) Antifungal minimum inhibitory concentration (MIC) testing was undertaken as recommended by the CLSI. Briefly, antifungal susceptibility tests were performed for amphotericin B, robenidine (NCL812) and 5 robenidine analogs (NCL062, NCL195, NCL219, NCL259, NCL265) by standard broth microdilution method (CLSI) in RPMI 1640. Various concentrations (ranging from high to low) of the selected compounds were prepared in RPMI 1640 medium by double dilution in 96-well microtitre plates. Each well contained an inoculum of approximately 2×10^3 cells/mL. The wells without addition of drugs served as negative (no inoculum) and positive (inoculum only) growth controls. Microtitre plates were incubated at 35° C. for 24-48 hours. […] Antifungal MICs were determined for each isolate in duplicate; if the values obtained were different, the MIC test was repeated a third time. Antifungal susceptibility tests were performed for amphotericin B and NCL analogs by standard broth microdilution method (CLSI). Briefly, various concentrations (ranging from high to low) of the selected compounds were prepared in RPMI 1640 medium by double dilution in the 96-well plates. Each well contained an inoculum of approximately 2×10^3 cells/mL. The wells without addition of drugs served as a negative control. Micro plates were incubated at 35° C. for 48 hour and read spectrophotometrically at 600 nm, using a microplate reader (Multiskan-EX; Thermo Elect. Corp., USA).

Candida albicans [1] = experiment: CLSI broth microdilution MIC (Example 3); type: cell-based
Description: as §1

Cryptococcus neoformans [2] = experiment: CLSI broth microdilution MIC (Example 6); type: cell-based
Description: (§2) Antifungal minimum inhibitory concentration (MIC) testing was undertaken as recommended by the CLSI (1). Briefly, antifungal susceptibility tests were performed for amphotericin B, robenidine (NCL812) and 10 robenidine analogs (NCL023, NCL024, NCL097, NCL113, NCL115, NCL195, NCL219, NCL220, NCL259, NCL265) by standard broth microdilution method (CLSI) in RPMI 1640. Various concentrations (ranging from high to low) of the selected compounds were prepared in RPMI 1640 medium by double dilution in 96-well microtitre plates. Each well contained an inoculum of approximately 2×10^3 cells/mL. The wells without addition of drugs served as negative (no inoculum) and positive (inoculum only) growth controls. Microtitre plates were incubated at 35° C. for 24-48 hours. […] Antifungal MICs were determined for each isolate in duplicate; if the values obtained were different, the MIC test was repeated a third time.

Candida albicans [3] = experiment: CLSI broth microdilution MIC (Example 6); type: cell-based
Description: as §2

Cryptococcus neoformans [4] = experiment: CLSI broth microdilution MIC (Example 4); type: cell-based
In short: (§3)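 CLSI broth microdilution in RPMI 1640 with two-fold compound dilutions and inoculum about 2×10^3 cells/mL. Plates incubated 35° C for 24-48 hours; MICs determined in duplicate, with a third test when the duplicates differed.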

Candida albicans [5] = experiment: CLSI broth microdilution MIC (Example 4); type: cell-based
In short: as §3

C. gattii = experiment: CLSI broth microdilution MIC (Example 6); type: cell-based, Cryptococcus gattii
Description: as §2

Cryptococcus neoformans [6] = experiment: CLSI broth microdilution MIC (Example 5); type: cell-based
Description: as §2, with “CLSI.” for “CLSI (1).”, “and” for “and 10”, “(NCL23, NCL24, NCL97,” for “(NCL023, NCL024, NCL097,”

Candida albicans [7] = experiment: CLSI broth microdilution MIC (Example 5); type: cell-based
Description: as §2, with “CLSI.” for “CLSI (1).”, “and” for “and 10”, “(NCL23, NCL24, NCL97,” for “(NCL023, NCL024, NCL097,”

[8] = system: Candida albicans ATCC14053; experiment: Broth micro-dilution screen at 16 μg/mL and MIC (Example 9); type: cell-based
Description: The antifungal activity of 201 NCL analogs against Candida albicans ATCC14053 in vitro was investigated. A broth micro-dilution method was used, according to CLSI guidelines as described. NCL analogs were dissolved in DMSO and originally screened at a single concentration of 16 μg/mL.

[9] = human clinical isolate C. neoformans serotype A/D hybrid
[10] = human clinical isolate C. neoformans var grubii 16-90050434
[11] = human clinical isolate C. neoformans var grubii 17-90028233
[12] = human clinical isolate C. neoformans var grubii 17-93996464
[13] = human clinical isolate C. neoformans var grubii 17-93996964
[14] = human clinical isolate C. gatti 17-90232099
[15] = human clinical isolate C. gattii 16-90050373
[16] = human clinical isolate C. gattii 17-90028211
[17] = human clinical isolate C. gattii 17-90028217
[18] = human clinical isolate C. gattii 17-90028242
[19] = clinical isolate C. albicans 12-93301752 Azole Resistant
[20] = clinical isolate C. albicans 14-90045999 Azole Resistant
[21] = clinical isolate C. albicans 15-45171061
[22] = clinical isolate C. albicans 15-91329871
[23] = clinical isolate C. albicans 16-24136919 Azole Resistant
[24] = clinical isolate C. albicans 16-46177400
[25] = clinical isolate C. albicans 16-90050810
[26] = clinical isolate C. albicans 16-90054237
[27] = clinical isolate C. albicans 18-144-00196
[28] = clinical isolate C. albicans 18-148-08188 Azole Resistant

Row | MIC (Cryptococcus neoformans [2]; Cryptococcus neoformans SA1) [µg/mL] | MIC (Cryptococcus neoformans [2]; Cryptococcus neoformans SA2) [µg/mL] | MIC (Cryptococcus neoformans [2]; [9]) [µg/mL] | MIC (Cryptococcus neoformans [2]; [10]) [µg/mL] | MIC (Cryptococcus neoformans [2]; [11]) [µg/mL] | MIC (Cryptococcus neoformans [2]; [12]) [µg/mL] | MIC (Cryptococcus neoformans [2]; [13]) [µg/mL] | MIC (Candida albicans [3]; C. albicans SA3) [µg/mL] | MIC (Candida albicans [3]; Candida albicans ATCC 90028) [µg/mL] | MIC at 24-48 hours (Cryptococcus neoformans [4]; Cryptococcus neoformans SA1) [µg/mL] | MIC at 24-48 hours (Cryptococcus neoformans [4]; Cryptococcus neoformans SA2) [µg/mL] | MIC at 24-48 hours (Candida albicans [5]; Candida albicans ATCC 90028) [µg/mL] | MIC at 24-48 hours (Candida albicans [5]; Candida albicans SA3) [µg/mL] | MIC (C. gattii; [14]) [µg/mL] | MIC (C. gattii; [15]) [µg/mL] | MIC (C. gattii; [16]) [µg/mL] | MIC (C. gattii; [17]) [µg/mL] | MIC (C. gattii; [18]) [µg/mL] | MIC (Cryptococcus neoformans [6]; Cryptococcus neoformans SA1) [µg/mL] | MIC (Cryptococcus neoformans [6]; Cryptococcus neoformans SA2) [µg/mL] | SMILES | further results
1 | 0.3 (≈ 0.325 µM) | 0.3 (≈ 0.325 µM) | 0.5 (≈ 0.541 µM) | 1 (≈ 1.08 µM) | 2 (≈ 2.16 µM) | 1 (≈ 1.08 µM) | 1 (≈ 1.08 µM) | 2 (≈ 2.16 µM) | 0.5 (≈ 0.541 µM) | 0.3 (≈ 0.325 µM) | 0.3 (≈ 0.325 µM) | 0.5 (≈ 0.541 µM) | 2 (≈ 2.16 µM) | 1 (≈ 1.08 µM) | 1 (≈ 1.08 µM) | 1 (≈ 1.08 µM) | 0.5 (≈ 0.541 µM) | 1 (≈ 1.08 µM) | 0.25 (≈ 0.271 µM) | 0.25 (≈ 0.271 µM) | C[C@@H]1[C@H](O)[C@@H](C)/C=C/C=C/C=C/C=C/C=C/C=C/C=C/[C@H](O[C@@H]2O[C@H](C)[C@@H](O)[C@H](N)[C@@H]2O)C[C@@H]2O[C@](O)(C[C@@H](O)C[C@@H](O)[C@H](O)CC[C@@H](O)C[C@@H](O)CC(=O)O[C@H]1C)C[C@H](O)[C@H]2C(=O)O [Amphotericin B, reference compound] | MIC (Candida parapsilosis; 1st): 0.5 µg/mL (≈ 0.541 µM); MIC (Candida parapsilosis; 2nd): 0.5 µg/mL (≈ 0.541 µM); MIC (Candida albicans [1]; Candida albicans ATCC 90028, 1st): 0.25 µg/mL (≈ 0.271 µM); MIC (Candida albicans [1]; Candida albicans ATCC 90028, 2nd): 0.5 µg/mL (≈ 0.541 µM); MIC (Candida albicans [1]; Candida albicans, 1st): 0.5 µg/mL (≈ 0.541 µM); MIC (Candida albicans [1]; Candida albicans, 2nd): 1 µg/mL (≈ 1.08 µM); MIC (Candida albicans [7]; C. albicans SA3): 2 µg/mL (≈ 2.16 µM); MIC (Candida albicans [7]; Candida albicans ATCC 90028): 0.5 µg/mL (≈ 0.541 µM); MIC (Candida albicans [7]; [19]): 0.5 µg/mL (≈ 0.541 µM); MIC (Candida albicans [7]; [20]): 0.25 µg/mL (≈ 0.271 µM); MIC (Candida albicans [7]; [21]): 0.125 µg/mL (≈ 0.135 µM); MIC (Candida albicans [7]; [22]): 0.125 µg/mL (≈ 0.135 µM); MIC (Candida albicans [7]; [23]): 0.5 µg/mL (≈ 0.541 µM); MIC (Candida albicans [7]; [24]): 0.25 µg/mL (≈ 0.271 µM); MIC (Candida albicans [7]; [25]): 0.125 µg/mL (≈ 0.135 µM); MIC (Candida albicans [7]; [26]): 0.125 µg/mL (≈ 0.135 µM); MIC (Candida albicans [7]; [27]): 0.25 µg/mL (≈ 0.271 µM); MIC (Candida albicans [7]; [28]): 0.5 µg/mL (≈ 0.541 µM)
2 | 4 | 4 | 4 | 4 | 4 | 4 | 4 | >32 | >32 | 4 | 4 | >32 | >32 | 4 | 2 to 4 | 4 | 4 to 8 | 2 to 4 | 4 | 4 | CN(C)c1ccc(/C=N/NC(=N)N/N=C/c2ccc(N(C)C)cc2)cc1.Cl [NCL113] | MIC ([8]; C. albicans ATCC14053, test range 0.25-64 μg/mL, duplicate): 4 µg/mL and 8 µg/mL; Screen at 16 μg/mL ([8]; single concentration 16 μg/mL, Growth or No growth of C. albicans ATCC14053): No growth; MIC (Candida albicans [7]; C. albicans SA3): >32 µg/mL; MIC (Candida albicans [7]; Candida albicans ATCC 90028): >32 µg/mL; MIC (Candida albicans [7]; [19]): 8 µg/mL; MIC (Candida albicans [7]; [20]): 8 to 16 µg/mL; MIC (Candida albicans [7]; [21]): 8 µg/mL; MIC (Candida albicans [7]; [22]): 8 µg/mL; MIC (Candida albicans [7]; [23]): 8 µg/mL; MIC (Candida albicans [7]; [24]): 16 µg/mL; MIC (Candida albicans [7]; [25]): 16 µg/mL; MIC (Candida albicans [7]; [26]): 8 µg/mL; MIC (Candida albicans [7]; [27]): 8 µg/mL; MIC (Candida albicans [7]; [28]): 8 µg/mL; activity against one or more isolates of Cryptococcus neoformans and Candida albicans (Candida albicans [7]; summary in words): highly active
